# Measurements taken from paper PMC5866846 (Archives of Toxicology, 2017).
# What was measured:
# CYP2C9 = CYP2C9 (Homo sapiens, UniProt P11712); assay: CYP2C9 activity in upcyte hepatocytes after treatment (probe substrate cocktail); type: cell-based; design: host or cells: upcyte hepatocytes 653-03 and 653-03 #138 (653-03 2D6); conditions: 5 µM, 72 h
# Description: (§1) Cells were cultivated in hepatocyte culture medium at 37 °C and 5 °% CO2 in a humidified incubator. Before starting experiments, cells were cultivated in hepatocyte culture medium containing 0.5% (v/v) DMSO (Preculture medium) for 5 days (density of 0.8 × 10^4 cells/cm^2) and were subcultivated in high-performance medium containing 0.1% (v/v) DMSO (Metabolism conditioning medium) for 3–5 days (density of 1.6 × 10^5 cells/cm^2, confluence). The medium was replaced every 2–3 days.
# (§2) In HLM and supersome™ incubations the formation rate is given as nmol µg^−1 min^−1 and fmol pmol^−1 min^−1, respectively, and was calculated as the mean ± SD. […] The intrinsic Clearance (Clint) was given as Vmax/Km ratio. […] Activity of CYP enzymes in induction assays is given as the fold-change (mean ± SD) compared to the corresponding DMSO-treated control. […] Gene expression patterns of treated cells are given as fold-change compared to the corresponding DMSO-treated control samples, as described above. […] In induction and inhibition experiments corresponding EC50 and IC50 values were calculated by nonlinear regression. In all experiments a level of probability (p) ≤ 0.05 for statistical testing was considered significant.
# (§3) As control 0.05 % DMSO was used. The basal CYP activity and induction of CYP activity compared to the DMSO control were measured via HPLC-ESI-MS/MS.
# [1] = test system: single CYP isoenzymes (Supersomes); assay: Formation of estrogen-like metabolites in Supersomes specific for single CYP isoenzymes; type: in vitro ADME; conditions: 50 µM precursors
# Description: Supersomes™ were obtained from Corning Incorporated, Wiesbaden, Germany, and were specific for CYP isoenzymes CYP1A1, 1A2, 2A6, 2B6, 2C8, 2C9, 2C19, 2D6, 3A4, 3A5 and 19A1. All Supersomes™ contained oxidoreductase. Cytochrome b5 was present in the Supersomes™ of CYP2A6, 2B6, 2C8, 2C9, 3A4 and 3A5. UDP-glucuronosyltransferases (UGT)containing Supersomes™ were specific for the following isoenzymes: 1A1, 1A2, 1A3, 1A4, 1A6, 1A7, 1A8, 1A9, 1A10, 2B4, 2B7, 2B10, 2B15 and 2B17.
# The reaction was started by adding a NADPH regenerating system (5 mM MgCl2, 5 mM glucose-6-phosphate, 0.5 mM NADP^+ and 10 U glucose-6-phosphate-dehydrogenase in 100 mM sodium phosphate buffer pH 7.4) to the samples and immediately put in a 37 °C water bath for 30 min. The reaction was stopped with the same volume of acetonitrile (ACN) containing 1% of acetic acid together with the corresponding deuterated internal standards. […] Metabolites were analyzed by HPLC-ESI-MS/MS.
# Protein was precipitated by the addition of ACN containing 1% of acetic acid and the corresponding deuterated internal standards to the same volume of the sample followed by centrifugation at 20.000 g for 15 min at RT. […] Glucuronides of estrogen-like metabolites were detected separately via MS/MS-measurements in negative ESI MRM mode.
# CYP3A4 [2] = assay: CYP3A4 activity in upcyte hepatocytes after treatment (probe substrate cocktail)
# Description: as §1, §2, §3
# [3] = test system: upcyte hepatocytes 653-03 and 653-03 2D6; assay: Tam metabolism in upcyte hepatocytes, cell strain not distinguished; type: in vitro ADME, human; conditions: 1 µM Tam, all time points
# Description: The medium was replaced every 2–3 days. […].
# The culture medium was collected after 24, 48, 72, 96 and 144 h followed by metabolite measurements using HPLC-ESI-MS/MS.
# Protein was precipitated by the addition of ACN containing 1% of acetic acid and the corresponding deuterated internal standards to the same volume of the sample followed by centrifugation at 20.000 g for 15 min at RT. […] Analytes were separated on a Zorbax Eclipse Plus C18 column (1.8 µm, 100 × 2.1 mm, Agilent technologies) and detected on a 6460 triple quadrupole mass spectrometer (Agilent technologies) in positive ESI MRM mode. Glucuronides of estrogen-like metabolites were detected separately via MS/MS-measurements in negative ESI MRM mode.
# […]. […] […].
# CYP2C19 = CYP2C19 (Homo sapiens, UniProt P33261); assay: CYP2C19 activity in upcyte hepatocytes after treatment (probe substrate cocktail); type: cell-based; design: host or cells: upcyte hepatocytes 653-03 and 653-03 #138 (653-03 2D6); conditions: human, probe S-mephenytoin (100 µM), upcyte hepatocytes, 50 pM to 5 µM, read-out: EC50 of induction of CYP2C19 activity
# Description: as §1, §2, §3
# CYP3A4 gene expression = CYP3A4 gene expression in upcyte hepatocytes (Fluidigm RT-PCR)
# Description: (§4) Total RNA was isolated from cells using the Direct-zol™ RNA MiniPrep kit (Zymo Research Corp., Irvine, California). cDNA was synthesized using TaqMan Reverse Transcription Reagents (Life technologies, Applera GmbH, Darmstadt, Germany) and the expression of 25 genes representative of phase I and phase II drug metabolism and transport was quantified by Fluidigm’s BioMark HD high-throughput quantitative chip platform (Fluidigm Corporation, San Francisco, USA). For relative gene expression analysis, the delta-delta-Ct (ΔΔCt) method was used: the Ct values of the target mRNA were first normalized to those of the endogenous control glyceraldehyde-3-phosphate dehydrogenase (GAPDH) followed by dividing values of experimental samples by their corresponding DMSO-treated controls to calculate the x-fold changes of mRNA expression.
# as §2, §3
# estrogen receptor = test system: estrogen receptor; design: method as in Johnson et al. [1989]; Murphy et al. [1990]; conditions: in vitro, estrogen-dependent breast cancer cell lines; ref Johnson et al. [1989]; Murphy et al. [1990]; cited from earlier work
# CYP1A2 = CYP1A2 activity in upcyte hepatocytes after treatment (probe substrate cocktail); conditions: human, EC50 of induction of CYP1A2 activity, 50 pM to 5 µM
# Description: as §1, §2, §3
# [4] = Formation kinetics of Tam-Bis, (Z)- and (E)-Met E in HLM with increasing substrate concentrations; type: in vitro ADME, human; conditions: substrate 1 to 50 µM, Michaelis-Menten
# Description: (§5) The reaction was started by adding a NADPH regenerating system (5 mM MgCl2, 5 mM glucose-6-phosphate, 0.5 mM NADP^+ and 10 U glucose-6-phosphate-dehydrogenase in 100 mM sodium phosphate buffer pH 7.4) to the samples and immediately put in a 37 °C water bath for 30 min. The reaction was stopped with the same volume of acetonitrile (ACN) containing 1% of acetic acid together with the corresponding deuterated internal standards. Regarding incubations with Supersomes™ containing UGTs, 5 µg of protein was incubated with 250 mM MgCl2 and 2.5 ng of alamethicin for 30 min on ice, followed by 10 min at 37 °C in a water bath. Subsequently, the Supersomes™ were incubated with 10 µM of substrates (Tam-Bis, (E)- and (Z)-Met E) and the glucuronidation was started by addition of 10 mM of uridine 5′-diphospho-glucuronic acid to the samples in a water bath at 37 °C for 30 min. The reaction was stopped as described above. Metabolites were analyzed by HPLC-ESI-MS/MS.
# For the assessment of formation kinetics of Tam-Bis, (E)- and (Z)-Metabolite E, HLM were incubated with increasing substrate concentrations ranging from 1 to 50 µM as described above. As control for each concentration a sample without NADPH-regenerating system was prepared. […]
# CYP2B6 = CYP2B6 activity in upcyte hepatocytes after treatment (probe substrate cocktail)
# Description: as §1, §2, §3
# [5] = Formation of Met E and Tam-Bis from precursors in pooled human liver microsomes with and without NADPH-regenerating system; type: in vitro ADME; conditions: DM-Tam, DDM-Tam, 50 µM, pooled HLM
# Description: as §5, with “Subsequently, the Supersomes™ were incubated with 10 µM of substrates (Tam-Bis, (E)- and (Z)-Met E) and the glucuronidation was started by addition of 10 mM of uridine 5′-diphospho-glucuronic acid to the samples in a water bath at 37 °C for 30 min. The reaction was stopped as described above.” left out
# Protein was precipitated by the addition of ACN containing 1% of acetic acid and the corresponding deuterated internal standards to the same volume of the sample followed by centrifugation at 20.000 g for 15 min at RT. […] Analytes were separated on a Zorbax Eclipse Plus C18 column (1.8 µm, 100 × 2.1 mm, Agilent technologies) and detected on a 6460 triple quadrupole mass spectrometer (Agilent technologies) in positive ESI MRM mode. Glucuronides of estrogen-like metabolites were detected separately via MS/MS-measurements in negative ESI MRM mode. […]
# CYP2C8 = target: T1, CYP2C8 (Homo sapiens, UniProt P10632); assay: CYP2C8 activity in upcyte hepatocytes after treatment (probe substrate cocktail); type: cell-based; design: host or cells: upcyte hepatocytes 653-03 and 653-03 #138 (653-03 2D6); conditions: human, probe amodiaquine (5 µM), upcyte hepatocytes, 50 pM to 5 µM, read-out: EC50 of induction of CYP2C8 activity
# T1 sequence (P10632 1-490): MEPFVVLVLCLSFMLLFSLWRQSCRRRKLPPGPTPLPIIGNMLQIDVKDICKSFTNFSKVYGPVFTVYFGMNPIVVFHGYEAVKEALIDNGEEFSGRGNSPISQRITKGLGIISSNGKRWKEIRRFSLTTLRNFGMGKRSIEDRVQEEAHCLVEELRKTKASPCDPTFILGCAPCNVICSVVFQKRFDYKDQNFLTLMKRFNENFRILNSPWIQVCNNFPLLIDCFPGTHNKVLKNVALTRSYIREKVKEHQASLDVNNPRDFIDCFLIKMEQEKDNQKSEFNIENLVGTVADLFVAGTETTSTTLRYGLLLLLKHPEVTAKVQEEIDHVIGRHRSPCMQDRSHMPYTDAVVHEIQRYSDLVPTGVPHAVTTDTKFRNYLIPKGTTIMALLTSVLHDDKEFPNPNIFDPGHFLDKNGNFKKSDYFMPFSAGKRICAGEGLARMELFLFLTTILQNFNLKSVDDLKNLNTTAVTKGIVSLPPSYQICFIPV
# Description: as §1, §2, §3
# SLC22A7 gene expression = SLC22A7 gene expression in upcyte hepatocytes (Fluidigm RT-PCR); type: cell-based, human; conditions: phenobarbital 2 mM, 72 h
# Description: as §4
# (§6) In HLM and supersome™ incubations the formation rate is given as nmol µg^−1 min^−1 and fmol pmol^−1 min^−1, respectively, and was calculated as the mean ± SD. […] The intrinsic Clearance (Clint) was given as Vmax/Km ratio. […] In induction and inhibition experiments corresponding EC50 and IC50 values were calculated by nonlinear regression. […]
# as §3
# CYP2C8 gene expression = CYP2C8 gene expression in upcyte hepatocytes (Fluidigm RT-PCR); type: cell-based, human; conditions: phenobarbital 2 mM, 72 h; 'up to' = strongest decrease
# Description: (§7) Differences between induced and control samples were compared using Welch’s t-test (GraphPad Prism, version 5.04), when the fold-change was considered biologically relevant (1.5-fold increase or decrease in fold-changes) and corrected for multiple testing according to Bonferroni. […] An unpaired t-test assuming unequal variances was used for testing of differences in the expression patterns, when the fold-change was considered biologically relevant (1.5-fold increase or decrease in fold-changes) and corrected using Bonferroni adjustments.
# (§8) As control 0.05 % DMSO was used.
# NAT1 gene expression = NAT1 gene expression in upcyte hepatocytes (Fluidigm RT-PCR); type: cell-based, human; conditions: phenobarbital 2 mM, 72 h; 'up to' = strongest decrease
# SULT1B1 gene expression = SULT1B1 gene expression in upcyte hepatocytes (Fluidigm RT-PCR); type: cell-based, human; conditions: phenobarbital 2 mM, 72 h; 'up to' = strongest decrease
# CYP3A4 [6] = conditions: hepatocytes
# CYP2C19 gene expression = CYP2C19 gene expression in upcyte hepatocytes (Fluidigm RT-PCR); type: cell-based, human; conditions: phenobarbital 2 mM, 72 h
# Description: as §7, §8
# UGT1A1 gene expression = UGT1A1 gene expression in upcyte hepatocytes (Fluidigm RT-PCR); type: cell-based, human; conditions: phenobarbital 2 mM, 72 h, both strains
# Description: as §4, §6, §3
# CYP2E1 gene expression = CYP2E1 gene expression in upcyte hepatocytes (Fluidigm RT-PCR); type: cell-based, human; conditions: phenobarbital 2 mM, 72 h; 'up to' = strongest decrease
# Description: as §7, §8
# SLCO1B1 gene expression = SLCO1B1 gene expression in upcyte hepatocytes (Fluidigm RT-PCR); type: cell-based, human; conditions: phenobarbital 2 mM, 72 h
# Description: as §4, §6, §3
# CYP2C19, sequence (P33261 whole entry): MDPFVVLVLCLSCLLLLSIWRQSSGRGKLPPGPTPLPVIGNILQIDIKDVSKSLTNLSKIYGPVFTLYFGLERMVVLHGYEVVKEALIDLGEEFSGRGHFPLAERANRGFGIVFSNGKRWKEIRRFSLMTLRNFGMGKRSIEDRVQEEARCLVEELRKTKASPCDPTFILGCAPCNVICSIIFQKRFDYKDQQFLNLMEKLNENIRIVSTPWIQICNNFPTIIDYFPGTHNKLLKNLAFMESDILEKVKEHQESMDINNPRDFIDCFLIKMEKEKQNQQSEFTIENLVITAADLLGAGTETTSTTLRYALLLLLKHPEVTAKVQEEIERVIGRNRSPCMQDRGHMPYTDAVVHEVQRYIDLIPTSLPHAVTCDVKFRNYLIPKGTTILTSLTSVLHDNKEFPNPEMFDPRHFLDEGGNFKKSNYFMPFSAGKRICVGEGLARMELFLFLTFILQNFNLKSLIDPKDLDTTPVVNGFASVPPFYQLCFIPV
# CYP2C9, sequence (P11712 whole entry): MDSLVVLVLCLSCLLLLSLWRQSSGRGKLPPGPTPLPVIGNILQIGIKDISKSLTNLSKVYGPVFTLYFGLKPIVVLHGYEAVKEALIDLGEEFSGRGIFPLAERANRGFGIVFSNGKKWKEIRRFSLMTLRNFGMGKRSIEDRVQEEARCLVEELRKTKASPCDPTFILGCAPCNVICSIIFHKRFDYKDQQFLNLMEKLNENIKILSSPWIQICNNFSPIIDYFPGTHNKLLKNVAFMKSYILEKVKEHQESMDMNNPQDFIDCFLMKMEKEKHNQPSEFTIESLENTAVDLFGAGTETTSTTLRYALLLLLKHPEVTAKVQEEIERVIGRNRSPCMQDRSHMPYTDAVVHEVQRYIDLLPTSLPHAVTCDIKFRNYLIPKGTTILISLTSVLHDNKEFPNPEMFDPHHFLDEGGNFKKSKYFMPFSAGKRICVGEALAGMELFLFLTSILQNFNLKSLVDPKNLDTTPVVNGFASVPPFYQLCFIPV
structure (smiles),measurement,setting,value
"CCC(=C(c1ccccc1)c1ccc(O)cc1)c1ccccc1 [(E)-Met E, 4-[1,2-diphenylbut-1-en-1-yl]phenol]",induction of CYP2C9 activity,CYP2C9,weakly induced
same,formation rates lower than those of the (Z)-isomer,[1],approximately 10 times
same,induction of CYP3A4 activity compared to DMSO control,"CYP3A4 [2]; 5 µM, 72 h, parental and derived cell line",weakly induced
same,EC50 at 72 h,"CYP3A4 [2]; human, probe atorvastatin (35 µM), EC50 of induction of CYP3A4 activity, upcyte hepatocytes, 72 h, 50 pM to 5 µM",0.277 µM
same,concentration of the (E)-isomer relative to (Z)-Met E,[3],about 10%
same,EC50 at 72 h,CYP2C19,> 5 µM
same,"CYP3A4 gene expression, induction vs DMSO control","CYP3A4 gene expression; 5 µM, 72 h, both cell strains",up to 5.6 fold
same,agonism regarding estrogen-regulated mRNA expression,estrogen receptor,full agonists
same,EC50 at 72 h,CYP1A2,> 5 µM
same,"V max, Bisphenol formation",[4],8.1 pmol/mg/min
same,Km,"[4]; read-out: Km, Bisphenol formation",10.4 µM
same,EC50 at 72 h,"CYP2B6; human, probe bupropion (25 µM)",> 5 µM
same,formation rate of the (E)-isomer compared to (Z)-Met E,[5],approximately 10%
same,EC50 at 72 h,CYP2C8,> 5 µM
"CCC1(c2ccccc2)C(=O)NC(=O)NC1=O [PB, phenobarbital]",SLC22A7 gene expression,SLC22A7 gene expression,down regulated
same,induction of CYP3A4 activity,CYP3A4 [2]; hepatocytes,induced
same,"CYP2C8 gene expression, decreased to x-fold of control",CYP2C8 gene expression,up to 0.3 fold
same,"NAT1 gene expression, down regulated to x-fold of control",NAT1 gene expression,up to 0.5 fold
same,"SULT1B1 gene expression, down regulated to x-fold of control",SULT1B1 gene expression,up to 0.5 fold
same,protein expression of CYP3A4 (Western blot),CYP3A4 [6],induced
same,"CYP2C19 gene expression, induction",CYP2C19 gene expression,up to 1.5 fold
same,"UGT1A1 gene expression, induction",UGT1A1 gene expression,1.8 fold
same,"CYP3A4 gene expression, induction","CYP3A4 gene expression; human, hepatocytes",≤ 9 fold
same,"CYP2E1 gene expression, decreased to x-fold of control",CYP2E1 gene expression,≤ 0.2 fold
same,induction of CYP2B6 activity,"CYP2B6; phenobarbital 2 mM, 72 h, both cell lines",induced
same,"SLCO1B1 gene expression, induction",SLCO1B1 gene expression,up to 2.9 fold
